Patent US8828976B2, “Identification and use of compounds that affect the fidelity of eukaryotic translation initiation codon selection” (priority 2010, dated 2014)
Where a name gives a salt, the structure may show the parent alone. Read-outs that look alike come from different tables or passages of the source.

Columns and labels:
[1] = tested on: UUG start codon of Fluc mRNA (fidelity of start codon selection); assay: Dual luciferase assay, primary screen (FlucUUG/RlucAUG), BY4741 with pFuugRaug; format: cell-based, Saccharomyces cerevisiae; settings: for raw FlucUUG value: at concentrations that decrease the other luciferase values
Source text: In the assay, Renilla luciferase (Rluc) and firefly luciferase (Fluc) genes are expressed from a single plasmid, each under the control of a separate constitutive promoter and terminator, allowing transcription of the two genes as separate mRNAs. The Fluc mRNA has a non-AUG start codon (FIG. 2A). […] UUG was chosen as the near cognate start site in the screen, allowing easy identification of compounds that either increase expression (chemically reproducing a Sui^− phenotype, decreasing fidelity) or decrease expression (enhancing fidelity) of UUG relative to AUG in the dual luciferase assay.
BY4741 expressing the RaugFaug plasmid was included in the 1st and last column as an additional control. Compounds to be tested were supplied from the NCI DTP library in 96 well format at 1 mM in DMSO. DMSO was included in all control wells. 1.5 μL of compound (or DMSO) was added to each well of the yeast plate, followed by incubation at 30° C. for 4 hours while shaking. […] The same protocol was used when testing the other libraries, with the appropriate solvent controls. The Fuug/Raug ratio of each sample with drug was compared to the average Fuug/Raug ratio of the solvent only controls on the same plate.
Every row contains DMSO-only controls for each strain. For each compound-treated sample, the ratio of [Fluc(UUG)/Rluc(AUG)]/[Fluc(AUG)/Rluc(AUG)] is calculated using the DMSO-only Fluc(AUG)/Rluc(AUG) control from that row (there is one for each row in a plate). This ratio is the Fluc(UUG)/Fluc(AUG) ratio normalized to Rluc(AUG) activity in each sample. […] Potential changes include pipetting inaccuracies, differences in lysis efficiencies or global effects on gene expression due to differences in cell densities during growth. The internal Rluc control also helps screen out compounds that affect gene expression or cell growth globally rather than having specific effects on translation from non-AUG codons.
When a hit was identified, rescreening and counter screening assays were done using 300 μM to 10 nM of the compound, i.e., the identified “hit,” to measure concentration dependence.

[2] = tested on: AUG start codon of Fluc mRNA; assay: Dual luciferase counter-screen (FlucAUG/RlucAUG), BY4741 with pFaugRaug; format: cell-based, Saccharomyces cerevisiae; settings: for FlucAUG/RlucAUG ratio in the presence of compound: BY4741, screening conditions
Description: The compounds were then tested in secondary assays.
The dual luciferase assay was carried out as in Kolitz et al. (RNA, vol. 15, no. 1, pp. 138-152, 2009), with the following modifications to screening conditions: An over-night culture of wild type yeast (BY4741 transformed with pFuugRaug) were diluted to an OD600 of approximately 0.2 in SC-Ura, and 50 μL were aliquoted to each well of a 96 well plate. BY4741 expressing the RaugFaug plasmid was included in the 1st and last column as an additional control. Compounds to be tested were supplied from the NCI DTP library in 96 well format at 1 mM in DMSO. DMSO was included in all control wells. 1.5 μL of compound (or DMSO) was added to each well of the yeast plate, followed by incubation at 30° C. for 4 hours while shaking. To measure luciferase activity, 1 μL of culture was added directly to 50 μL of 1× Passive Lysis Buffer (Promega), incubated 40-60 minutes at room temperature, then luciferase activity measured using a Turner Modulus Microplate Reader (Kolitz et al., RNA, vol. 15, no. 1, pp. 138-152, 2009). The same protocol was used when testing the other libraries, with the appropriate solvent controls. The Fuug/Raug ratio of each sample with drug was compared to the average Fuug/Raug ratio of the solvent only controls on the same plate.
Changes in the Fluc(UUG)/Rluc(AUG) ratio could be caused by a compound altering the use of UUG as a start codon (the desired target) or a variety of other effects such as changes in transcription of one gene, changes in mRNA or protein half-life, or inhibition or activation of one of the luciferase enzymes. […] Compounds that specifically increase use of near-cognate codons as start sites will not produce an effect in this Fluc(AUG)/Rluc(AUG) assay, whereas compounds that alter other process will not be specific for the Fluc(UUG)/Rluc(AUG) system and will still produce effects with the Fluc(AUG)/Rluc(AUG) reporter. Compounds that are not specific for effects on Fluc(UUG) expression will not be pursued further.

[3] = tested on: FlucUUG/RlucAUG ratio in hc eIF1 strain; assay: Dual luciferase assay in strain over-expressing eIF1 (H3984, hc eIF1); format: cell-based, Saccharomyces cerevisiae; settings: hc eIF1 vs BY4741; for suppression of the compound's effect on UUG initiation by over-expression of eIF1: 60 μM NSC218351, 3.8 μM NSC92218
Description: H3984 data are an average of 2 independent experiments. Error bars represent average deviation. The concentration of NSC218351 was 60 μM, and NSC92218 was 3.8 μM. Haplo-insufficiency results are averages of data from 2 separate transformants. The concentration of NSC218351 was 33 μM, and NSC92218 was 7 μM. FlucAUG/RlucAUG expression ratio with DMSO alone was used to normalize the Fluc/Rluc ratio for both FlucAUG and FlucUUG for each strain (normalized FlucAUG/RlucAUG with DMSO alone is 1 for each strain).
Data, from 2 independent experiments, were analyzed.

[4] = tested on: Sui- strain sui1-1 (eIF1 D83G); assay: Growth assay of Sui- strain sui1-1 (his4-303) on SC-His / SC plates with compound-soaked paper strips; settings: for growth of sui1-1 close to the compound source: paper strip with 10 mM NSC92218 or 50 mM NSC218351, FIG. 18 column 1 and 5
Source text: Compound or solvent soaked paper strips were placed on agar plates. Yeast were spotted onto the plate as 4 rows increasingly distant from the paper strip and grown for 4 days on SC-His and 2 days on SC.
An additional reporter assay utilizes a yeast strain in which the AUG start codon of the HIS4 gene has been changed to AUU (his4-303) (Huang et al., Genes Dev., vol. 11, pp. 2396-2413, 1997). This strain is a histidine auxotroph and cannot grow on medium lacking histidine. However, Sui^− mutations allow initiation from the AUU start site or, more commonly, a UUG three codons downstream from it, restoring expression of His4p and thus growth on His^− medium (Castilho-Valavicius et al., Genetics, vol. 124, pp. 483-495, 1990; Huang et al., Genes Dev., vol. 11, pp. 2396-2413, 1997; Yoon et al., Mol. Cell. Biol., vol. 12, pp. 248-260, 1992). Observing an alteration of the Sui^− phenotype is a more sensitive assay than rescuing growth of a wild type strain. […] Likewise, if the compound increases the fidelity of initiation, then growth should be compromised.
Yeast with the his4-303 allele from an over-night culture were washed with water and diluted to an OD600 between 0.1-1. Strips of sterile Whatman paper were soaked with compound or solvent and placed on an agar plate of the appropriate media. The yeast culture was spotted onto the plate at various distances from the paper strips. The plates were incubated at 30° C. Diffusion creates a gradient of compound, which tends to enhance growth only in a certain range because of off-setting toxicity at high concentrations.
Chemically increasing use of near-cognate codons as start codons mimics the Sui^− phenotype. Sui^− mutations were originally identified in a screen that requires translation initiation at a non-AUG start codon in a mutant of the HIS4 gene (his4-303 allele) for growth on SC-His media (Donahue et al., Mol. Cell. Biol., vol. 8, no. 7, pp. 2955-2963, 1988). Compounds that increase the use of non-AUG start codons to a small degree should further increase growth of Sui^− strains with the his4-303 allele on SC-His media, chemically enhancing the Sui^− phenotype. To test this, a paper strip saturated with compound was placed onto a plate of media (SC or SC-His). Yeast with the his4-303 allele was spotted on the plate at various distances from the compound- or solvent-containing strips.

[5] = tested on: UUG start codon of PRE2 uORF; assay: uORF luciferase assay (PRE2 uORF with UUG start codon fused to firefly luciferase); format: cell-based, Saccharomyces cerevisiae; settings: wild type yeast, normalized to DMSO alone
Description: BY4741 was transformed with pNTI33 or pNTI32. Transformants were incubated with compound and luciferase activity measured as described for the dual luciferase assay. The solvent-only firefly luciferase activity was used for normalization.
To further validate the effects of compounds that pass the primary and counterscreens, an additional reporter assay was performed. The assay uses a 5′-upstream open reading frame (uORF) that begins with a UUG codon and was shown in yeast to be translated, especially under amino acid starvation conditions (Castilho-Valavicius et al., Genetics, vol. 124, pp. 483-495, 1990). This uORF was fused both in-frame and out-of-frame to the firefly luciferase gene and the effect of the compounds on initiation on this physiologically relevant near-cognate start codon assessed.
This construct was used to assess the effect of the compounds on translation mediated by the non-AUG start codon of the uORFs. The PRE2 uORF has an UUG start codon, with the consensus sequence (−3)AAA(−1) directly upstream of UUG (FIG. 15). In the control reporter, the luciferase coding region is out-of-frame from the start codon of the uORF.

yeast cells = assay: Growth / toxicity to wild type yeast
Sui- mutant eIF1 D83G = assay: Growth of Sui- mutant eIF1 D83G in His- culture (doubling time); format: cell-based, Saccharomyces cerevisiae; settings: His- culture with compound; decreased from 8 hrs
Source text: Doubling times were quantified for two experiments by plotting Log2(OD600) vs. time. The slope of the line between −2.5<Log2(OD600)<2 equals 1/doubling time.
(§1) While small, the effects are reproducible. No effects on growth of Sui^− strains with mutations in other initiation factors (eIF1A, eIF2, and eIF5) have been detected.

[6] = tested on: Sui- strains with mutations in eIF1A, eIF2, and eIF5; assay: Growth of Sui- strains with mutations in other initiation factors; format: cell-based, Saccharomyces cerevisiae
Source text: as §1

[7] = tested on: near-cognate start codons; assay: Dual luciferase assay with Fluc reporters with different near-cognate start codons; format: cell-based, Saccharomyces cerevisiae; settings: Fluc reporter with AUU start codon
Description: AAG and AGG are not used detectably as Fluc initiation codons in yeast (Kolitz et al., RNA, vol. 15, no. 1, pp. 138-152, 2009) and were thus not tested. […] Efficiency of use of near cognate codons as initiation sites was measured with the dual luciferase assay in several Sui^− mutant strains. Translation from each alternative start codon in the Sui^− strain was normalized to translation from that codon in a wild type strain. Sui^− mutations increase the use of near cognates up to 18-fold (GUG in eIF1 D83G strain). However, in each mutant strain, translation from AUU is increased the least. Although it is not understood why AUU behaves anomalously, it is interesting that NSC218351 mimics this aspect of the behavior of the Sui^− mutations in initiation factors.

[8] = analogs of NSC92218, 8 μM, ratio normalized to DMSO control
[9] = 50 mM on the paper strip, SC-His

COc1cc(N)c2ncccc2c1Cl [Cpd 19, 5-chloro-6-methoxyquinolin-8-amine]
UUG/AUG (primary screen effect) [1, 8]: 0.94
AUG/AUG (counter screen effect) [2, 8]: 0.99

Nc1cc(I)c2cccnc2c1O [NSC92218, 7-amino-5-iodo-8-quinolinol hydrochloride]
reduction of the compound's effect in the eIF1 over-expressing strain relative to wild type cells ([3]; 3.8 μM): ~50%
suppression of the compound's effect on UUG initiation by over-expression of eIF1 [3]: partially
growth of sui1-1 in column 1 on SC-His relative to the inhibitory effect on SC ([4]; 2.5 mM on the paper strip): growth enhancement occurred
growth of sui1-1 on SC-His in columns 2 and 3 ([4]; 10 mM on the paper strip): enhanced growth
growth of sui1-1 close to the compound source [4]: prevented growth
increase of the FlucUUG/RlucAUG ratio [1]: 1.8 fold
minimal concentration required to achieve the 1.8-fold increase of the UUG/AUG ratio [1]: 15 µM
raw FlucUUG value [1]: did not change, or increases slightly
increase of expression of the in-frame PRE2 uORF-Fluc reporter [5]: ~2 fold
FlucAUG/RlucAUG ratio in the presence of compound [2]: did not change
concentration that does not affect growth of wild type yeast while the FlucUUG/RlucAUG ratio increases (yeast cells): 2 µM

O=C(O)c1nccc2ccccc12 [NSC218351, isoquinoline-1-carboxylic acid]
suppression of the compound's effect on UUG initiation by over-expression of eIF1 [3]: completely suppressed
doubling time of eIF1 D83G (Sui- mutant eIF1 D83G): 7.35 h
growth of Sui- strains with mutations in other initiation factors (eIF1A, eIF2, and eIF5) [6]: No effects
initiation at AUU codons [7]: did not increase
growth of sui1-1 on SC-His in the column closest to the compound source ([4]; 12.5 mM on the paper strip, column 1): enhanced
growth of sui1-1 on selective media close to the drug source [4, 9]: inhibited
growth of sui1-1 on selective media farther from the source relative to DMSO [4, 9]: enhanced
growth of the eIF1 Sui- strains on His- plates ([4]; His- plates): enhances the growth
growth of sui1-1 close to the compound source [4]: slowed growth
minimal concentration for the effect, NSC218351 relative to NSC92218 ([1]; 60 μM vs 15 μM, higher for NSC218351): 4 fold
minimal concentration required to achieve the 1.8-fold increase of the UUG/AUG ratio ([1]; BY4741): 60 µM
increase of the FlucUUG/RlucAUG ratio ([1]; BY4741, 4 hours with compound, reached at 60 μM NSC218351 / 15 μM NSC92218): 1.8 fold
raw FlucUUG value [1]: increased slightly
raw RlucAUG value ([1]; pFuugRaug plasmid, increasing concentration): decreased
increase of expression of the in-frame PRE2 uORF-Fluc reporter [5]: approximately 1.5 fold
FlucAUG/RlucAUG ratio in the presence of compound [2]: does not change
toxicity to yeast cells (yeast cells): not toxic
concentration that does not affect growth of wild type yeast while the FlucUUG/RlucAUG ratio increases (yeast cells): 50 µM
concentration at which growth was reduced (yeast cells; yeast): 300 µM
working concentrations at which toxicity is not a concern (yeast cells; yeast): 10 to 100 µM

C[C@@H]1C[C@@H]([C@H](O)CC2CC(=O)NC(=O)C2)C(=O)[C@@H](C)C1 [cycloheximide, reference compound]
effect on FlucUUG/RlucAUG ratio ([1]; BY4741 grown under screening conditions): altered
raw luciferase values relative to control values ([1]; cells grown under screening conditions, four hours): ~25%
FlucAUG/RlucAUG ratio in the presence of compound [2]: also altered
